Patent US6737383B1, “Herbicidal oxadiazolidines” (priority 1999, dated 2004)

Assays:
[1] = system: bedstraw; experiment: Test B pre/postemergence bedstraw; assay type: in vivo, Galium aparine
How it was run: (§1)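 Test chemicals in a non-phytotoxic solvent mixture with surfactant were sprayed preemergence onto planted seeds and postemergence onto plants 2 to 18 cm tall (1- to 4-leaf stage). After twelve to sixteen days in a greenhouse, injury was visually rated against untreated controls from 0 (no effect) to 10 (complete control).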

[2] = system: blackgrass; experiment: Test B pre/postemergence blackgrass; assay type: in vivo, Alopecurus myosuroides
How it was run: as §1

[3] = system: surinam grass; experiment: Test B pre/postemergence surinam grass; assay type: in vivo, Brachiaria decumbens
How it was run: as §1

[4] = system: cocklebur; experiment: Test B pre/postemergence cocklebur; assay type: in vivo, Xanthium strumarium
How it was run: as §1

[5] = system: crabgrass; experiment: Test B pre/postemergence crabgrass; assay type: in vivo, Digitaria sanguinalis
How it was run: as §1

[6] = system: giant foxtail; experiment: Test B pre/postemergence giant foxtail; assay type: in vivo, Setaria faberii
How it was run: as §1

[7] = system: morningglory; experiment: Test B pre/postemergence morningglory; assay type: in vivo, Ipomoea hederacea
How it was run: as §1

[8] = system: pigweed; experiment: Test B pre/postemergence pigweed; assay type: in vivo, Amaranthus retroflexus
How it was run: as §1

[9] = system: soybean; experiment: Test B pre/postemergence soybean; assay type: in vivo, Glycine max
How it was run: as §1

[10] = system: velvetleaf; experiment: Test B pre/postemergence velvetleaf; assay type: in vivo, Abutilon theophrasti
How it was run: as §1

[11] = system: wheat; experiment: Test B pre/postemergence wheat; assay type: in vivo, Triticum aestivum
How it was run: as §1

[12] = system: wild oat; experiment: Test B pre/postemergence wild oat; assay type: in vivo, Avena fatua
How it was run: as §1

[13] = system: purple nutsedge; experiment: Test B pre/postemergence purple nutsedge; assay type: in vivo, Cyperus rotundus
How it was run: as §1

[14] = system: rice; experiment: Test B flood test rice; assay type: in vivo, Oryza sativa
How it was run: (§2)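 Flood test on plants grown to the 2-leaf stage; treated plants kept in greenhouse twelve to sixteen days, then visually rated against controls on a 0 (no effect) to 10 (complete control) scale.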

[15] = system: smallflower flatsedge; experiment: Test B flood test smallflower flatsedge; assay type: in vivo, Cyperus difformis
How it was run: as §2

[16] = system: bamyardgrass; experiment: Test B flood test barnyardgrass; assay type: in vivo, Echinochloa crus-galli
How it was run: as §2

[17] = Preemergence, Rate 62 g/ha, scale of 0 to 10 where 0 is no effect and 10 is complete control
[18] = Preemergence, Rate 125 g/ha, 0 is no effect, 10 is complete control
[19] = Preemergence, Rate 250 g/ha, scale 0 to 10, 0 is no effect, 10 is complete control
[20] = Preemergence, Rate 500 g/ha, scale 0 to 10 (0 no effect, 10 complete control)
[21] = Rate 62 g/ha, Postemergence, scale of 0 to 10 where 0 is no effect and 10 is complete control
[22] = Rate 125 g/ha, Postemergence, scale 0 to 10
[23] = Rate 500 g/ha, Postemergence, scale 0 to 10
[24] = Rate 62 g/ha, headed Pre-emergence (flood test species), scale 0 to 10 (0 no effect, 10 complete control)
[25] = Rate 125 g/ha, Pre-emergence, flood test species, scale 0 to 10 where 0 is no effect and 10 is complete control
[26] = Rate 250 g/ha, Pre-emergence, flood-test species, scale 0 to 10, 0 is no effect, 10 is complete control
[27] = Rate 500 g/ha, headed Pre-emergence (flood test species), scale 0 to 10 (0 no effect, 10 complete control)

COc1nc(OC)nc(N(C(=O)n2oc(=O)n(-c3c(C)cccc3C)c2=O)C(C)C)n1 [Compound 180]
0: Bedstraw plant response rating [1, 17] | Bedstraw plant response rating (0 to 10 scale) [1, 18] | Bedstraw plant response rating [1, 19] | Bedstraw plant response rating [1, 20] | Bedstraw plant response rating [1, 21] | Bedstraw plant response rating [1, 22] | Plant response rating (0 to 10; 0 is no effect, 10 is complete control), Bedstraw ([1]; Rate 250 g/ha, Postemergence) | Bedstraw plant response rating [1, 23] | Blackgrass plant response rating [2, 17] | Blackgrass plant response rating (0 to 10 scale) [2, 18] | Blackgrass plant response rating [2, 19] | Blackgrass plant response rating [2, 20] | Blackgrass plant response rating [2, 21] | Blackgrass plant response rating [2, 22] | Plant response rating (0 to 10; 0 is no effect, 10 is complete control), Blackgrass ([2]; Rate 250 g/ha, Postemergence) | Blackgrass plant response rating [2, 23] | B. signalgrass plant response rating [3, 17] | B. signalgrass plant response rating (0 to 10 scale) [3, 18] | B. signalgrass plant response rating [3, 19] | B. signalgrass plant response rating [3, 20] | B. signalgrass plant response rating [3, 21] | B. signalgrass plant response rating ([3]; Rate 125 g/ha, Postemergence, scale 0 (no effect) to 10 (complete control)) | Plant response rating, B. signalgrass ([3]; Rate 250 g/ha, Postemergence, scale 0 to 10, 0 is no effect, 10 is complete control) | B. signalgrass plant response rating ([3]; Rate 500 g/ha, Postemergence, scale 0 to 10, 0 no effect, 10 complete control) | Cocklebur plant response rating [4, 17] | Cocklebur plant response rating (0 to 10 scale) [4, 18] | Cocklebur plant response rating [4, 19] | Cocklebur plant response rating [4, 20] | Cocklebur plant response rating [4, 21] | Cocklebur plant response rating [4, 22] | Plant response rating (0 to 10; 0 is no effect, 10 is complete control), Cocklebur ([4]; Rate 250 g/ha, Postemergence) | Cocklebur plant response rating [4, 23] | Crabgrass plant response rating [5, 17] | Crabgrass plant response rating (0 to 10 scale) [5, 18] | Crabgrass plant response rating [5, 19] | Crabgrass plant response rating [5, 20] | Crabgrass plant response rating [5, 21] | Crabgrass plant response rating [5, 22] | Plant response rating (0 to 10; 0 is no effect, 10 is complete control), Crabgrass ([5]; Rate 250 g/ha, Postemergence) | Crabgrass plant response rating [5, 23] | Giant foxtail plant response rating [6, 17] | Giant foxtail plant response rating (0 to 10 scale) [6, 18] | Giant foxtail plant response rating [6, 19] | Giant foxtail plant response rating [6, 20] | Giant foxtail plant response rating [6, 21] | Giant foxtail plant response rating [6, 22] | Plant response rating (0 to 10; 0 is no effect, 10 is complete control), Giant foxtail ([6]; Rate 250 g/ha, Postemergence) | Giant foxtail plant response rating [6, 23] | Morningglory plant response rating [7, 17] | Morningglory plant response rating (0 to 10 scale) [7, 18] | Morningglory plant response rating [7, 19] | Morningglory plant response rating [7, 20] | Morningglory plant response rating [7, 21] | Morningglory plant response rating [7, 22] | Plant response rating (0 to 10; 0 is no effect, 10 is complete control), Morningglory ([7]; Rate 250 g/ha, Postemergence) | Morningglory plant response rating [7, 23] | Redroot pigweed plant response rating [8, 17] | Redroot pigweed plant response rating (0 to 10 scale) [8, 18] | Redroot pigweed plant response rating [8, 19] | Redroot pigweed plant response rating [8, 20] | Redroot pigweed plant response rating [8, 21] | Redroot pigweed plant response rating [8, 22] | Plant response rating (0 to 10; 0 is no effect, 10 is complete control), Redroot pigweed ([8]; Rate 250 g/ha, Postemergence) | Redroot pigweed plant response rating [8, 23] | Soybean plant response rating [9, 17] | Soybean plant response rating (0 to 10 scale) [9, 18] | Soybean plant response rating [9, 19] | Soybean plant response rating [9, 20] | Soybean plant response rating [9, 21] | Soybean plant response rating [9, 22] | Plant response rating (0 to 10; 0 is no effect, 10 is complete control), Soybean ([9]; Rate 250 g/ha, Postemergence) | Soybean plant response rating [9, 23] | Velvetleaf plant response rating [10, 17] | Velvetleaf plant response rating [10, 19] | Velvetleaf plant response rating [10, 20] | Velvetleaf plant response rating [10, 22] | Plant response rating (0 to 10; 0 is no effect, 10 is complete control), Velvetleaf ([10]; Rate 250 g/ha, Postemergence) | Velvetleaf plant response rating [10, 23] | Wheat plant response rating [11, 17] | Wheat plant response rating [11, 19] | Wheat plant response rating [11, 20] | Wheat plant response rating [11, 22] | Plant response rating (0 to 10; 0 is no effect, 10 is complete control), Wheat ([11]; Rate 250 g/ha, Postemergence) | Wheat plant response rating [11, 23] | Wild oats plant response rating [12, 17] | Wild oats plant response rating [12, 19] | Wild oats plant response rating [12, 20] | Wild oats plant response rating [12, 22] | Plant response rating (0 to 10; 0 is no effect, 10 is complete control), Wild oats ([12]; Rate 250 g/ha, Postemergence) | Wild oats plant response rating [12, 23] | Nutsedge plant response rating [13, 17] | Nutsedge plant response rating (0 to 10 scale) [13, 18] | Nutsedge plant response rating [13, 19] | Nutsedge plant response rating [13, 20] | Nutsedge plant response rating [13, 21] | Nutsedge plant response rating [13, 22] | Plant response rating (0 to 10; 0 is no effect, 10 is complete control), Nutsedge ([13]; Rate 250 g/ha, Postemergence) | Nutsedge plant response rating [13, 23] | Rice plant response rating [14, 24] | Rice plant response rating [14, 25] | Rice plant response rating [14, 26] | Plant response rating, Rice [14, 27] | S. Flatsedge plant response rating [15, 24] | S. Flatsedge plant response rating [15, 25] | S. Flatsedge plant response rating [15, 26] | S. Flatsedge plant response rating ([15]; Rate 500 g/ha, Pre-emergence, flood test species, scale 0 to 10 (0 no effect, 10 complete control)) | Barnyardgrass plant response rating [16, 24] | Barnyardgrass plant response rating [16, 25] | Barnyardgrass plant response rating [16, 26] | Plant response rating, Barnyardgrass [16, 27]
